≈ marks a conversion by molar mass, not a printed value. Like-named read-outs stand apart in the source and are kept apart here. One block for each molecule: values may come before it.
What was measured:
[1] = system: Plasmodium falciparum strain FCR3; assay: Antimalarial activity in various strains, FCR3; assay type: cell-based
Protocol: (§1) f. Parasite cultures. The P. falciparum strains used in the experiments: ItG2G1 (Brazil, provided by Dr. L. H. Miller), D6 (W. African, provided by Dr. A. J. M. Oduola) FCR-3 (Gambian, provided by Dr. J. B. Jensen) and W2 (Indochina, provided by Dr. A. J. M. Oduola), were grown in culture flasks of human erythrocytes by a modified version of Trager and Jensen's method as described by Silfen et al. ((1988) Biochem. Pharmacol. 37: 4269-4276)).
(§2) g. Bioassay of iron carrier antimalarial activity. […] After the indicated time of incubation with drug and either previous to or after washing 3 times with 100 volumes growth medium, the cells were supplemented with 6 μCi of either [^3 H]-hypoxanthine or [^3 H]-Ileu (Amersham, England) per well and parasite growth assessed after 24-48 hours by harvesting the labelled cells onto glass-fiber filters (Tamar, Inc. Jerusalem) and counting of the radioactivity.
(§3) It is clear that the efficacy of the agents is primarily correlated with the respective octanol/saline partition coefficient or the hydrophobicity of the amino acid side chain, and only secondarily with their iron binding efficiencies, which are relatively high for all the agents. […] The antimalarial activity of the various chelators was assessed over a 24 hr period of exposure on infected cells (trophozoite stage of P. falciparum) as described in method (g). […]

[2] = system: human HT29 colonic carcinoma cells; assay: Proliferation of mammalian cells, HT29; assay type: cell-based; conditions: for Proliferation (nucleic acid synthesis): 24 hours exposure, [3H]-hypoxanthine; for Proliferation (protein synthesis): [3H]ileu incorporation, not shown
Protocol: (§4) The possibility that the reversed siderophores might affect mammalian cells in culture was assessed in conditions identical to those used for parasites in cultures. […] Nucleic acid synthesis was measured in cultures of mouse NIH 3T3 fibroblasts and human HT29 colonic carcinoma cells in the presence of either SF1-ileu (open circles), desferrioxamine (DFO) (solid triangle) in DMSO or DMSO alone (Control) (<1% final) (open triangles) at same concentrations. Cultures at confluence were exposed to chelators for 24 hours; the first 3 hours without radiolabel and 21 hours with 6 μCi/ml of [^3 H]-hypoxanthine. Extracellular hypoxanthine was removed by several washes with PBS and the cells were treated with 5% TCA for 15 minutes at 5° C. and solubilized with hot 2.5% SDS. Samples were taken for counting of radioactivity and measurement of protein (BCA, Pierce). Data are given as dpm/μg protein and SD (duplicate samples).

[3] = system: trophozoites of P. falciparum; assay: Antimalarial activity (Table 2), [3H]-hypoxanthine incorporation; assay type: cell-based, Plasmodium falciparum; conditions: 40 h
Protocol: g. Bioassay of iron carrier antimalarial activity. The antimalarial activity was assayed by adding the compounds from concentrated stock solutions (in DMSO) to microcultures (24 wells, Costar) containing infected red cells (2.5% hematocrit and 2% parasitemia). The cultures were usually synchronized (4-7 hrs. windows) by incubation in 300 mM Ala, 10 mM TRIS-Cl in conjunction with gelatin flotation and used either at the trophozoite (1-2% parasitemia) or at the ring stage (4-6% parasitemia) of the erythrocyctic cycle. After the indicated time of incubation with drug and either previous to or after washing 3 times with 100 volumes growth medium, the cells were supplemented with 6 μCi of either [^3 H]-hypoxanthine or [^3 H]-Ileu (Amersham, England) per well and parasite growth assessed after 24-48 hours by harvesting the labelled cells onto glass-fiber filters (Tamar, Inc. Jerusalem) and counting of the radioactivity. […]

[4] = system: synchronized cultures of rings (P. falciparum); assay: Time dependence of parasite growth inhibition, rings; assay type: cell-based, Plasmodium falciparum; conditions: for Inhibitory effect, in words: rings; for inhibition at 10 µg/mL: Plasmodium falciparum, read-out: Inhibition of parasite growth
Protocol: (§5) g. Bioassay of iron carrier antimalarial activity. The antimalarial activity was assayed by adding the compounds from concentrated stock solutions (in DMSO) to microcultures (24 wells, Costar) containing infected red cells (2.5% hematocrit and 2% parasitemia). The cultures were usually synchronized (4-7 hrs. windows) by incubation in 300 mM Ala, 10 mM TRIS-Cl in conjunction with gelatin flotation and used either at the trophozoite (1-2% parasitemia) or at the ring stage (4-6% parasitemia) of the erythrocyctic cycle. After the indicated time of incubation with drug and either previous to or after washing 3 times with 100 volumes growth medium, the cells were supplemented with 6 μCi of either [^3 H]-hypoxanthine or [^3 H]-Ileu (Amersham, England) per well and parasite growth assessed after 24-48 hours by harvesting the labelled cells onto glass-fiber filters (Tamar, Inc. Jerusalem) and counting of the radioactivity.
(§6) To study the growth stage of parasites most sensitive to inhibition, the time dependence of the inhibitory effect of SF1-ileu (10 μg/ml) vis a vis that of DFO (80 μg/ml) was assessed both on synchronized cultures of rings and of cultures of trophozoites. The cells were exposed to the […], the cells were washed from extracellular drug and assessed for [^3 H]-hypoxanthine incorporation after the last sample completed the 4 hours incubation period with drug.

[5] = system: synchronized cultures of trophozoites (P. falciparum); assay: Time dependence of parasite growth inhibition, trophozoites; assay type: cell-based, Plasmodium falciparum; conditions: for Inhibitory effect, in words: trophozoites; for inhibition at 10 µg/mL: Plasmodium falciparum, read-out: Inhibition of parasite growth
Protocol: as §5, §6

[6] = system: trophozoites of P. falciparum, strain ItG2G1; assay: Antimalarial activity (Table 1), [3H]hypoxanthine incorporation; assay type: cell-based; conditions: Plasmodium falciparum
Protocol: as §1, §5
The antimalarial activity of the different chelators was initially evaluated on cultures of trophozoites which were exposed for 24 hours to different concentrations of chelators. Following that period, [^3 H]-hypoxanthine or [^3 H]-Ileu were added and 24 hours later the parasitemia and incorporation of label into macromolecular material was determined.

[7] = system: Plasmodium falciparum strain ItG2G1; assay: Antimalarial activity in various strains, ItG2G1; assay type: cell-based
Protocol: as §1, §2, §3

[8] = system: Plasmodium falciparum strain W2; assay: Antimalarial activity in various strains, W2; assay type: cell-based
Protocol: as §1, §2, §3

[9] = system: mouse NIH 3T3 fibroblasts; assay: Proliferation of mammalian cells, NIH 3T3; assay type: cell-based; conditions: for Proliferation (nucleic acid synthesis): 24 hours exposure, [3H]-hypoxanthine; for Proliferation (protein synthesis): [3H]ileu incorporation, not shown
Protocol: as §4

[10] = Relative iron(III) binding efficiency by competition with EDTA; assay type: physicochemical; conditions: for Relative binding: Table 1, DFO = 100, competition with EDTA in aqueous MeOH; for rel. Fe binding (b): Table 2, relative to DFO = 1.16, 0.75 mM hydroxamate, 0.15 mM EDTA, 0.15 mM Fe3+ in aqueous methanol; for Pcoeff*Fe binding (a*b): product of relative partition coefficient and relative iron(III) binding
Protocol: c. The relative binding efficiencies of the reversed siderophores (0.75 mM reversed siderophore and 0.15 mM Fe^3+ in aqueous MeOH (MeOH-0.1N NaOAc) were incubated with EDTA (0.15 mM). After equilibration overnight, the fraction of siderophore- Fe^3+ complex present was determined at 430 nm.
The values for Pcoeff of free RSF ileun2 (the same as SF1ileu) and of leun2 and their respective iron(III) complexes were similar (not shown).

[11] = 0.5 hr incubation, SF1-ileu 10 μg/ml

IC50 ([1]; strain FCR3 (chloroquine-resistant), 48 hour exposure, trophozoites, read-out: IC50): 32 ± 7 µg/mL (≈ 57.1 µM)
IC50 (c) [3]: 40000 ± 8000 nM
IC50 ([6]; 48 hours exposure, strain ItG2G1 trophozoites, read-out: IC50): 30 µg/mL (≈ 53.5 µM)
IC50 ([7]; strain ItG2G1 (chloroquine-sensitive), 48 hour exposure, trophozoites, read-out: IC50): 35 ± 3 µg/mL (≈ 62.4 µM)
IC50 ([8]; strain W2 (chloroquine-resistant), 48 hour exposure, trophozoites, read-out: IC50): 31 ± 6 µg/mL (≈ 55.3 µM)
Relative binding [10]: 100
rel. Fe binding (b) [10]: 1.16
Pcoeff*Fe binding (a*b) [10]: 0.065
SMILES: CC(=O)N(O)CCCCCNC(=O)CCC(=O)N(O)CCCCCNC(=O)CCC(=O)N(O)CCCCCN [DFO, desferrioxamine B, reference compound]
Proliferation (nucleic acid synthesis) [2]: neither SF1-ileu nor DFO affected the proliferation
Proliferation (protein synthesis) [2]: neither SF1-ileu nor DFO affected the proliferation
Inhibitory effect, in words ([4]; DFO 80 μg/ml, 6 hrs exposure): inhibitory effects were dismal
Inhibitory effect, in words ([4]; DFO 80 μg/ml, 20 hrs exposure): substantial inhibition
Inhibitory effect, in words ([5]; DFO 80 μg/ml, 6 hrs exposure): inhibitory effects were dismal
Inhibitory effect, in words ([5]; DFO 80 μg/ml, 20 hrs exposure): substantial inhibition
Proliferation (nucleic acid synthesis) [9]: neither SF1-ileu nor DFO affected the proliferation
Proliferation (protein synthesis) [9]: neither SF1-ileu nor DFO affected the proliferation

SMILES: CC[C@H](C)[C@H](NC(=O)CCOCC(CC)(COCCC(=O)N[C@H](C(=O)N(C)O)[C@@H](C)CC)COCCC(=O)N[C@H](C(=O)N(C)O)[C@@H](C)CC)C(=O)N(C)O [SF1-ileu]
IC50 ([1]; FCR3, 48 h): 3 ± 1 µg/mL (≈ 3.86 µM)
Proliferation (nucleic acid synthesis) [2]: neither SF1-ileu nor DFO affected the proliferation
Proliferation (protein synthesis) [2]: neither SF1-ileu nor DFO affected the proliferation
IC50 ([3]; Plasmodium falciparum, read-out: IC50 (c)): 3000 ± 2000 nM
inhibition at 10 µg/mL ([4]; 2 h): ~70%
inhibition at 10 µg/mL ([4]; 20 h): > 95%
Inhibitory effect, in words [4, 11]: major inhibitory effects
inhibition at 10 µg/mL ([5]; 2 h): ~90%
inhibition at 10 µg/mL ([5]; 20 h): > 95%
Inhibitory effect, in words [5, 11]: major inhibitory effects
IC50 ([6]; 48 h): 2 µg/mL (≈ 2.57 µM)
IC50 ([7]; 48 h): 5 ± 2 µg/mL (≈ 6.44 µM)
IC50 ([8]; W2, 48 h): 4 ± 1 µg/mL (≈ 5.15 µM)
Proliferation (nucleic acid synthesis) [9]: neither SF1-ileu nor DFO affected the proliferation
Proliferation (protein synthesis) [9]: neither SF1-ileu nor DFO affected the proliferation
Relative binding [10]: 25
rel. Fe binding (b) [10]: 0.29
Pcoeff*Fe binding (a*b) [10]: 2.4
